Source: US10766869B2, “Triazoles for the treatment of demyelinating dieases” (Vertex Pharmaceuticals Incorporated, priority 2015, dated 2020)
Read-outs that look alike come from different tables or passages of the source.

Tested on: primary rat mixed cortical cells
Experiment: In vitro myelination assay (MBP positive myelin strands, fold myelin pixels above background)
Assay type: cell-based
Conditions: Rattus norvegicus; for fold induction at 1 µM: 1.0 μM compound; for fold induction at 10 µM: 10.0 μM compound
Method in brief: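 Fourteen-day treatment of primary P1 rat mixed cortical cultures, re-dosed at days 6 and 10, at 1.0 μM and 10.0 μM. MBP immunofluorescence was imaged at 10× and myelin strands quantified by software, normalised to untreated wells as fold above background.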

[1] = read-out: Fold myelin pixels above background relative to baseline of no added compound
[2] = relative to baseline of no added compound, read-out: Fold myelin pixels above background
[3] = relative to baseline of no added compound, read-out: Fold myelin pixels above background, 1.0 μM
[4] = relative to baseline of no added compound, read-out: Fold myelin pixels above background, 10.0 μM

Structure (SMILES) | fold induction at 1 µM [1] | fold induction at 10 µM [1] | fold induction at 1 µM [3] | fold induction at 10 µM [4] | other results
Cc1cc(NCC2(N3CCCC3)COC2)cc(Nc2ncn(-c3cc(F)cc(F)c3)n2)c1 [Compound 1020, N1-[1-(3,5-difluorophenyl)-1,2,4-triazol-3-yl]-5-methyl-N3-[(3-pyrrolidin-1-yloxetan-3-yl)methyl]benzene-1,3-diamine] | 10 to 100 | 1 to 10 |  |  | 
Cc1cc(Nc2ncn(-c3cc(F)cc(F)c3)n2)c(F)c(OC2CCOC2)c1 (single isomer, unassigned) [Compound 1028, 1-(3,5-difluorophenyl)-N-(2-fluoro-5-methyl-3-tetrahydrofuran-3-yloxy-phenyl)-1,2,4-triazol-3-amine] | 10 to 100 | 1 to 10 |  |  | 
Cc1cc(Nc2ncn(-c3cc(F)cc(F)c3)n2)cc(C2CN(C3COC3)CC(C)O2)c1 (stereo not drawn) [Compound 663, 1-(3,5-difluorophenyl)-N-[3-methyl-5-[6-methyl-4-(oxetan-3-yl)morpholin-2-yl]phenyl]-1,2,4-triazol-3-amine] |  |  |  |  | fold induction at 1 µM [2]: 10 to 100; fold induction at 10 µM [2]: ≤ 1
CC(=O)N1CCC(Oc2cc(C)cc(Nc3ncn(-c4cc(F)cc(F)c4)n3)c2)CC1 [Compound 805, 1-[4-[3-[[1-(3,5-difluorophenyl)-1,2,4-triazol-3-yl]amino]-5-methyl-phenoxy]-1-piperidyl]ethanone] | 10 to 100 | 1 to 10 |  |  | 
Fc1cccc(-n2cnc(Nc3cc(C4CC4)cc(N4CCN(C5COC5)CC4)c3)n2)c1 [Compound 462, N-[3-cyclopropyl-5-[4-(oxetan-3-yl)piperazin-1-yl]phenyl]-1-(3-fluorophenyl)-1,2,4-triazol-3-amine] |  |  |  |  | fold induction at 1 µM [2]: 100 to 1000; fold induction at 10 µM [2]: ≤ 1
Cc1cc(Nc2ncn(-c3cccc(F)c3)n2)cc(N2CCOCC2)c1 [Compound 27, 1-(3-fluorophenyl)-N-(3-methyl-5-morpholino-phenyl)-1,2,4-triazol-3-amine] |  |  | 1000 to 10000 | 100 to 1000 | 
Cc1cc(NCC2CCCC2N2CCOCC2)cc(Nc2ncn(-c3cc(F)cc(F)c3)n2)c1 (stereo not drawn) [Compound 895, N1-[1-(3,5-difluorophenyl)-1,2,4-triazol-3-yl]-5-methyl-N3-[(2-morpholinocyclopentyl)methyl]benzene-1,3-diamine] | 10 to 100 | 1 to 10 |  |  | 
COCC1CCN(c2cc(C)cc(Nc3ncn(-c4ccnc(F)c4)n3)c2)CC1 [Compound 122, 1-(2-fluoro-4-pyridyl)-N-[3-[4-(methoxymethyl)-1-piperidyl]-5-methyl-phenyl]-1,2,4-triazol-3-amine] |  |  | 10 to 100 | 1000 to 10000 | 
Cc1cc(Nc2ncn(-c3ccc(F)c(F)c3)n2)cc(OCCN2CCOCC2)c1 [Compound 845, 1-(3,4-difluorophenyl)-N-[3-methyl-5-(2-morpholinoethoxy)phenyl]-1,2,4-triazol-3-amine] | 10 to 100 | 1 to 10 |  |  | 
Cc1cc(Nc2ncn(-c3ccccc3)n2)cc(N2C[C@@H]3C[C@H]2CN3C)c1 [Compound 479, N-[3-methyl-5-[(1S,4S)-5-methyl-2,5-diazabicyclo[2.2.1]heptan-2-yl]phenyl]-1-phenyl-1,2,4-triazol-3-amine] |  |  |  |  | fold induction at 1 µM [2]: 100 to 1000; fold induction at 10 µM [2]: ≤ 1
Cc1cc(Nc2ncn(-c3cc(F)cc(F)c3)n2)cc([C@@]2(O)CCN(C3COC3)C2)c1 (single isomer, unassigned) [Compound 101] |  |  | 1000 to 10000 | 1 to 10 | 
Clc1cc(Nc2ncn(-c3ccncn3)n2)cc(N2CC(N3CCOCC3)C2)c1 [Compound 863, N-[3-chloro-5-(3-morpholinoazetidin-1-yl)phenyl]-1-pyrimidin-4-yl-1,2,4-triazol-3-amine] | 10 to 100 | 10 to 100 |  |  | 
COCCCCN1CCN(c2cc(C)cc(Nc3ncn(-c4cc(F)cc(F)c4)n3)c2)CC1 [Compound 1001, 1-(3,5-difluorophenyl)-N-[3-[4-(4-methoxybutyl)piperazin-1-yl]-5-methyl-phenyl]-1,2,4-triazol-3-amine] | 10 to 100 | 1 to 10 |  |  | 
Cc1cc(Nc2ncn(-c3cc(F)cc(F)c3)n2)cc(NC2CCN(CC(F)F)CC2)c1 [Compound 992, N1-[1-(2,2-difluoroethyl)-4-piperidyl]-N3-[1-(3,5-difluorophenyl)-1,2,4-triazol-3-yl]-5-methyl-benzene-1,3-diamine] | 1 to 10 | 1 to 10 |  |  | 
CCOCCOC1CCN(c2cc(C)cc(Nc3ncn(-c4cc(F)cc(F)c4)n3)c2)CC1 [Compound 962, 1-(3,5-difluorophenyl)-N-[3-[4-(2-ethoxyethoxy)-1-piperidyl]-5-methyl-phenyl]-1,2,4-triazol-3-amine] | 1 to 10 | 1 to 10 |  |  | 
Fc1cc(F)cc(-n2cnc(Nc3cc(C4COC4)cc(N4CCN(C5COC5)CC4)c3)n2)c1 [Compound 313, 1-(3,5-difluorophenyl)-N-[3-(oxetan-3-yl)-5-[4-(oxetan-3-yl)piperazin-1-yl]phenyl]-1,2,4-triazol-3-amine] |  |  | 1 to 10 | 100 to 1000 | 
Cc1cc(Nc2ncn(-c3cc(F)cc(F)c3)n2)cc(N2CCN(C)C(=O)C2)c1 [Compound 360, 4-[3-[[1-(3,5-difluorophenyl)-1,2,4-triazol-3-yl]amino]-5-methyl-phenyl]-1-methyl-piperazin-2-one] |  |  | 10 to 100 | 10 to 100 | 
Cc1cc(Nc2ncn(-c3cncc(F)c3)n2)cc(N2CCOCC2)c1 [Compound 427, 1-(5-fluoro-3-pyridyl)-N-(3-methyl-5-morpholino-phenyl)-1,2,4-triazol-3-amine] |  |  |  |  | fold induction at 1 µM [2]: 100 to 1000; fold induction at 10 µM [2]: 100 to 1000
FC(F)c1cc(Nc2ncn(-c3cccc(C(F)(F)F)c3)n2)nc(N2CCOCC2)c1 [Compound 867, 4-(difluoromethyl)-6-morpholino-N-[1-[3-(trifluoromethyl)phenyl]-1,2,4-triazol-3-yl]pyridin-2-amine] | 10 to 100 | 10 to 100 |  |  | 
Fc1cc(F)cc(-n2cnc(Nc3cc(C(F)F)cc(N4CCN(C5COC5)CC4)c3)n2)c1 [Compound 82, N-[3-(difluoromethyl)-5-[4-(oxetan-3-yl)piperazin-1-yl]phenyl]-1-(3,5-difluorophenyl)-1,2,4-triazol-3-amine] |  |  | 1000 to 10000 | 100 to 1000 | 
OC1(C2CN(c3cc(Nc4ncn(-c5cc(F)cc(F)c5)n4)cc(C(F)(F)F)c3)CCN2)CCC1 (stereo not drawn) [Compound 4, 1-[4-[3-[[1-(3,5-difluorophenyl)-1,2,4-triazol-3-yl]amino]-5-(trifluoromethyl)phenyl]piperazin-2-yl]cyclobutanol] |  |  | 1 to 10 | ≤ 1 | 
Cc1cc(Nc2ncn(-c3cc(F)cc(F)c3)n2)c(F)c(OC2CCOC2)c1 (stereo not drawn) [Compound 856, 1-(3,5-difluorophenyl)-N-(2-fluoro-5-methyl-3-tetrahydrofuran-3-yloxy-phenyl)-1,2,4-triazol-3-amine] | 10 to 100 | ≤ 1 |  |  | 
COCCN1CCC(Nc2cc(C)cc(Nc3ncn(-c4cc(F)cc(F)c4)n3)c2)C1 (stereo not drawn) [Compound 894, N3-[1-(3,5-difluorophenyl)-1,2,4-triazol-3-yl]-N1-[1-(2-methoxyethyl)pyrrolidin-3-yl]-5-methyl-benzene-1,3-diamine] | 10 to 100 | ≤ 1 |  |  | 
CN1CCN(c2cc(Nc3ncn(-c4ccncc4)n3)cc(C(F)(F)F)c2)CC1 [Compound 13, N-[3-(4-methylpiperazin-1-yl)-5-(trifluoromethyl)phenyl]-1-(4-pyridyl)-1,2,4-triazol-3-amine] |  |  | 100 to 1000 | ≤ 1 | 
Cc1cc(Nc2ncn(-c3cc(F)cc(F)c3)n2)nc(N2CCCC(O)C2)c1 (stereo not drawn) [Compound 755, 1-[6-[[1-(3,5-difluorophenyl)-1,2,4-triazol-3-yl]amino]-4-methyl-2-pyridyl]piperidin-3-ol] |  |  |  |  | fold induction at 1 µM [2]: 1 to 10; fold induction at 10 µM [2]: 10 to 100
Cc1cc(Nc2ncn(-c3ccc(F)c(F)c3)n2)cc(O[C@@H]2CCCN(C3COC3)C2)c1 (single isomer, unassigned) [Compound 665] |  |  |  |  | fold induction at 1 µM [2]: 10 to 100; fold induction at 10 µM [2]: 1 to 10
CSc1cccc(-n2cnc(Nc3cc(C)cc(N4CCN(C5COC5)CC4)c3)n2)c1 [Compound 439, N-[3-methyl-5-[4-(oxetan-3-yl)piperazin-1-yl]phenyl]-1-(3-methylsulfanylphenyl)-1,2,4-triazol-3-amine] |  |  |  |  | fold induction at 1 µM [2]: 1 to 10; fold induction at 10 µM [2]: 1 to 10
Cc1cc(Nc2ncn(-c3ccccc3)n2)cc(O[C@H]2CCN(C3COC3)C2)c1 [Compound 239, N-[3-methyl-5-[(3S)-1-(oxetan-3-yl)pyrrolidin-3-yl]oxy-phenyl]-1-phenyl-1,2,4-triazol-3-amine] |  |  | 1000 to 10000 | ≤ 1 | 
Cc1cc(Nc2ncn(-c3cc(F)cc(F)c3)n2)c(F)c(N2CCN(C(CO)CO)CC2)c1 [Compound 989, 2-[4-[3-[[1-(3,5-difluorophenyl)-1,2,4-triazol-3-yl]amino]-2-fluoro-5-methyl-phenyl]piperazin-1-yl]propane-1,3-diol] | ≤ 1 | ≤ 1 |  |  | 
Cc1cc(Nc2ncn(-c3cc(F)cc(F)c3)n2)cc(N2CCN(CCN(C)C)CC2)c1 [Compound 809, 1-(3,5-difluorophenyl)-N-[3-[4-[2-(dimethylamino)ethyl]piperazin-1-yl]-5-methyl-phenyl]-1,2,4-triazol-3-amine] | 1 to 10 | ≤ 1 |  |  | 
